Experimental data published in patent US6087493A, “Porphyrin compounds as telomerase inhibitors” (Regents of the University of Texas System, priority 1998, dated 2000).
Where two headings read alike, the source gives them in different places.

How the values were obtained:
PC3 = experiment: Cytotoxicity (MTT) PC3; type: cell-based, human; details: Homo sapiens, PC-3; PC3 (prostate), 4-7 days; read-out: IC 50 cytotoxicity
Protocol: (§1) The cells were cultured in the presence of the porphyrins incubator for 4-7 days and then treated with 3-(4,5-dimethylthiazol-2-yl)-2,5-diphenyl-tetrazolium bromide (MTT). Formazan concentration was quantitated by absorbance at 570 nm.

[1] = Cytotoxicity (MTT) NHLF normal lung fibroblasts; type: cell-based; details: human, nhlf cells; NHLF (normal), 4-7 days; read-out: IC 50 cytotoxicity
Protocol: as §1
All porphyrins were obtained from Midcentury, Posen, Ill. The experimental work with porphyrins was performed under minimum exposure to light. All human tumor cell lines and normal human breast cells Hs578Bst were purchased from the American Type Culture Collection. Normal human lung fibroblasts NHLF were obtained from Clonetics Corporation. The cell lines were grown according to the suppliers' instructions.

[2] = system: MCF7 human breast carcinoma cells (telomerase activity); experiment: Telomerase activity in intact MCF7 cells cultured with porphyrin; type: cell-based; details: 1, 10 and 100 μM, days 4, 8 and 15
Protocol: To determine the long-term effects of TMPyP4 on whole cells, MCF7 breast carcinoma cells were cultured in the continuous presence of 1, 10, and 100 μM TMPyP4. The porphyrin solution was freshly added to the medium from the concentrated stock at each passage of the cells (every 3-4 days). On days 4, 8, and 15, the cells were lysed and the telomerase activity was measured in the extracts.
Breast cancer cells MCF-7m, BT20, HS578t and normal HS578Bst cells were grown in culture in T75 flasks (10^6 cells/flask). […] The cells were harvested and freeze-thawed and the extracts used to measure telomerase activity using the Dynabeads method.

sea urchin embryos = system: sea urchin embryos
Protocol: Lytechinus pictus sea urchins were purchased from Marinus Inc. (Long Beach, Calif.) and maintained at 15° C. in refrigerated aquaria containing Instant Ocean synthetic sea water, following a described procedure [Vafa, 1996 #300]. For polyspermic fertilization, 0.01 vol freshly prepared stock sperm suspension (25 ml ASW containing 2 ml undiluted semen) was added to the eggs suspended for 10 min at 1% concentration in ASW adjusted to pH 9.0 with NH4 OH and stirred at 60 rpm with motor-driven Teflon paddles. Ten min after insemination, the fertilized eggs were allowed to settle, and the supernatant ASW containing sperm was aspirated and replaced with fresh ASW. The embryos were cultured at 18° C. Twenty min after fertilization TMPyP4 or TMPyP4.Pt^II (100 μM final concentration) was added from a concentrated stock in DMSO to 1% embryo suspensions. Equivalent amounts of DMSO (final 0.1%) were added to control egg suspensions. At measured times after insemination, the embryos were pelleted by centrifugation and resuspended in Carnoy's fixative (ethanol:acetic acid, 3:1) for at least 1 hr. After fixation the embryos were pelleted and resuspended successively in: (1) ethanol:acetic acid, 1:1 for 5-15 min: (2) 45% acetic acid for 5-15 min; (3) room temperature 1 N HCl for 1-2 min: (4) 60° C. 1 N HCl for 7-8 min; (5) room temperature 1 N HCl for 1-2 min; (6) Schiffs reagent for 90-120 min; and (7) 45% acetic acid before affixing the embryos to microscope slides. Embryo samples were placed on microscope slides, covered with coverslips, and frozen on a bed of dry ice. After at least 30 min, the coverslips were popped off using a razor blade and the slides were immediately plunged into Coplin jars containing 95% ethanol for 5-10 min. The slides were then transferred to Coplin jars containing 100% ethanol for 3-5 min. After removing the slides and allowing them to air dry, the embryos were mounted with one drop Permount (Fisher) under a coverglass.
The inventors examined whether treatment of the embryos with G-quadroplex interactive agents can cause observable chromosomal abnormalities. A time course of the embryo development was followed in the presence of 10 μM and 100 μM concentrations of TMPyP4 or TMPyP4.Pt^II.

MX-1 mammary carcinoma = details: for # CR's: n=20
Protocol: A MX-1 human breast tumor adjuvant model employed nude mice (Harlan Sprague Dawley, Inc.). The mice were implanted s.c. by trocar with fragments of MX-1 mammary carcinomas harvested from S.C. growing MX-1 tumors in nude mice hosts. When tumors were approximately 5 mm×5 mm in size (about 10 days after inoculation), the animals received cytoxan at 200 mg/kg. After tumors regressed (fifteen days after cytoxan administration), the animals were pair-matched into groups of mice, each of which was eartagged and followed individually throughout the experiment. The i.p. daily administration of TMPyP4 at 10 and 20 mg/kg five times weekly, began the day the animals were pairmatched (Day 1). TMPyP4 20 mg/kg was administered for 47 days. At the 10 mg/kg dose, TMPyP4 was administered continuously to the end of the study.
Mice were weighed twice weekly and tumor measurements were taken by calipers twice weekly, starting on Day 1. These tumor measurements were converted to mg tumor weight by a well-known formula, and from these calculated tumor weights, the termination date for each individual mouse was determined. Mice were euthanized when their tumors reached approximately 2 grams. Time to tumor recurrence and survival were monitored during the study.

[3] = system: cultured human dermal fibroblasts; details: Georgiou et al., 1994, cited from earlier work
[4] = listed as tetra(N-methyl-4-pyridyl)porphyrin

C[n+]1ccc(-c2c3nc(c(-c4cc[n+](C)cc4)c4ccc([nH]4)c(-c4cc[n+](C)cc4)c4nc(c(-c5cc[n+](C)cc5)c5ccc2[nH]5)C=C4)C=C3)cc1 [TMPyP4, 5,10,15,20-tetra-(N-methyl-4-pyridyl)porphine]
IC50 (PC3): 184 µM
CC50 [1]: 13.5 µM
telomerase activity in intact MCF7 cells [2]: clear concentration-dependent loss of telomerase activity
telomerase activity in intact MCF7 cells [2, 4]: telomerase activity is reduced relative to control cells
differences from controls in embryos (sea urchin embryos; 10 μM, 150 min after fertilization): no definitive differences were seen
condensed chromosome length / chromosomal effects (sea urchin embryos; 100 μM): condensed chromosomes were longer than in the untreated controls
proliferation and mitosis in embryos (sea urchin embryos; in vivo): significantly decreases proliferative rates in the developing embryos and increases the percent of the cell in mitosis
toxicity to embryos (sea urchin embryos; in vivo): generally non-toxic to the embryos
cell number and morphology of embryos (sea urchin embryos; later time points): fewer cells, many very misshapen and variable in size relative to the controls
first signs of ciliary motility (sea urchin embryos; treated embryos): 9 h
# PS Remaining (MX-1 mammary carcinoma; 10 mg/kg): 0
# Partial Shrinkage (MX-1 mammary carcinoma; 10 mg/kg): 2
# Recur at 2 g (MX-1 mammary carcinoma; 10 mg/kg): 6
# Remaining w/Tumors (MX-1 mammary carcinoma; 10 mg/kg): 1
# of Recur (MX-1 mammary carcinoma; 10 mg/kg): 8
# of Survivors (MX-1 mammary carcinoma; 10 mg/kg): 11
# of Toxic Deaths (MX-1 mammary carcinoma; 10 mg/kg): 1
% CR's (MX-1 mammary carcinoma; 10 mg/kg): 90%
Avg Day of Recur (MX-1 mammary carcinoma; 10 mg/kg): 25 days
MDS (MX-1 mammary carcinoma; 10 mg/kg): 55
MDS-Partial Shrinkages (MX-1 mammary carcinoma; 10 mg/kg): 36.0
Mean Tumor Wt. (MX-1 mammary carcinoma; 10 mg/kg): 11.52 mg
# CR's (MX-1 mammary carcinoma; 10 mg/kg i.p. daily five times weekly): 18
# PS Remaining (MX-1 mammary carcinoma; 20 mg/kg): 0
# Partial Shrinkage (MX-1 mammary carcinoma; 20 mg/kg): 5
# Recur at 2 g (MX-1 mammary carcinoma; 20 mg/kg): 8
# Remaining w/Tumors (MX-1 mammary carcinoma; 20 mg/kg): 0
# of Recur (MX-1 mammary carcinoma; 20 mg/kg): 9
# of Survivors (MX-1 mammary carcinoma; 20 mg/kg): 6
# of Toxic Deaths (MX-1 mammary carcinoma; 20 mg/kg): 1
% CR's (MX-1 mammary carcinoma; 20 mg/kg): 75%
Avg Day of Recur (MX-1 mammary carcinoma; 20 mg/kg): 19.33 days
MDS (MX-1 mammary carcinoma; 20 mg/kg): 67.4
MDS-Partial Shrinkages (MX-1 mammary carcinoma; 20 mg/kg): 44.6
# CR's (MX-1 mammary carcinoma; 20 mg/kg i.p. daily five times weekly): 15
uptake / nuclear accumulation [3]: rapidly accumulate (within min) in the nuclei of cultured human dermal fibroblasts
uptake / nuclear accumulation [3, 4]: taken up by cells and localized in organelles known to contain DNA
